According to paper PMC3871589, “Evaluation of STAT3 Signaling in ALDH+ and ALDH+/CD44+/CD24− Subpopulations of Breast Cancer Cells” (PLoS ONE, 2013):

Experiments:
[1] = tested on: SUM159 ALDH+ breast cancer stem-like cells; experiment: Mouse mammary fat pad model with SUM159 ALDH+ cells; format: in vivo, NOD/SCID mice; settings: 5 mg/kg IP daily
Method: For mammary fat pad experiments, 1×10^5 of sorted SUM159 ALDH^+ cells, assessed using Aldefluor kit (StemCell Technologies) were injected into the humanized fat pads of NOD/SCID mice (The Jackson Laboratory), as previously described [5]. […] Tumors were measured by a caliper and the volume was calculated using V = π (width^2×length)/6. After 15 days of treatments with LLL12 or vehicle control, tumors were harvested from euthanized mice, snap-frozen in liquid nitrogen, and stored in −80°C. […] The rest of tumors tissues were homogenized to examine the expression of STAT3 phosphorylation by western blot.

STAT1 = settings: cited from earlier work
Syk = Syk (Homo sapiens, UniProt P43405); experiment: Kinase profiler assay, Syk; format: biochemical; settings: 10 concentrations, 100 µM highest; Table S3
Method: (§1) The effects of LLL12 on twenty six purified human protein kinases were performed at the Millipore UK Limited (Dundee, UK) and Reaction Biology Corp. (Malvern, PA) using the Kinase profiler assay. Assays contained a peptide substrate, purified recombinant human protein kinases to be tested, and gamma-labeled ATP, magnesiumion. Radioactive phosphorylated product was measured and quantitated via a scintillation counter.

[2] = tested on: mTOR and AKT phosphorylation; experiment: mTOR and AKT phosphorylation in ALDH+ cells; format: cell-based, human; settings: ALDH+ subpopulation, all three cell lines; 5 µmol/L, 24 hours
Method: After sorting by flow cytometry, ALDH^+ and ALDH^+/CD44^+/CD24^− stem-like cells were cultured in serum-free stem cell medium in ultra-low attachment six-well plates (Corning) to maintain cancer stem cell characteristics. ALDH^−, ALDH^−/CD44^+/CD24^+cells and un-separated cells were cultured in regular medium and replaced with identical stem cell medium for three days before being harvested. To assess the effects of STAT3 inhibitors, ALDH^+ and ALDH^+/CD44^+/CD24^− subpopulations of breast cancer cells were treated with LLL12 (5 µmol/L) of or static (10 µmol/L) for 24 hours. STAT3, or control GFP shRNA lentivirus (CTL ShRNA) was introduced into ALDH^+ breast cancer stem-like cells for 48 hours, then followed by selection with puromycin (0.2 µg/ml) for 72 hours. Antibodies (Cell Signaling Tech.) against phospho-specific STAT3 (Tyrosine 705) (P-STAT3, Y705), ERK1/2 (Threonine 202/Tyrosine 204), cleaved Poly (ADP-ribose) polymerase (PARP), ALDH1, cleaved caspase-3, and GAPDH were used for western blots.

[3] = tested on: ALDH+/CD44+/CD24− subpopulation of MDA-MB-231 and SUM159 breast cancer cells; experiment: Tumorsphere formation of ALDH+/CD44+/CD24− subpopulation; format: cell-based, human; settings: Figure 5E
Method: ALDH^+ and ALDH^+/CD44^+/CD24^− cells were plated as single cells in ultra-low attachment six-well plates at a density of 250, 500, 1000 or 50,000 viable cells/well as previously described. On the second day after seeding, the ALDH^+ cancer cells were treated with 2.5–10 µmol/L of LLL12 or Stattic. For tumorsphere forming capacity assay, ALDH^+ or ALDH^− cells were plated as single cells in ultra-low attachment six-well plates at a density of 250, 500 or 1000 viable cells/well. Tumorsphere growth was observed under a microscope 10 to 15 days later.

ALDH− cells = experiment: MTT cell viability assay, ALDH− subpopulation; format: cell-based, human; settings: Figure S4
Method: (§2) The breast cancer cells were seeded in 96-well plates (3,000 cells/well) in triplicates in a serum-free mammary epithelial basal medium. The following day, cancer cells were treated with 1 to 10 µmol/L of LLL12 or Stattic for 72 hours, STAT3 ShRNA or control GFP shRNA lentivirus (CTL ShRNA) for 48 hours. MTT (Thiazolyl Blue Tetrazolium Bromide, Sigma-Aldrich) assay was used to determine the cell viability.

STAT3 phosphorylation = experiment: Western blot of STAT3 phosphorylation in ALDH+/CD44+/CD24− cells; format: cell-based, human; settings: ALDH+/CD44+/CD24− subpopulation of MDA-MB-231 and SUM159; 0.5–5 µM
Method: (§3) The ALDEFLUOR kit (StemCell Technologies) was used to isolate the population with high ALDH enzymatic activity as previously described. Briefly, cells were trypsinized to single cells using 0.05% trypsin and subsequently suspended in ALDEFLUOR assay buffer containing ALDH substrate (BAAA, 1 µmol/l per 1×10^6 cells) and then incubated for 40 minutes at 37°C. For each sample, an aliquot of cells was stained under identical conditions with 15 mmol/L diethylaminobenzaldehyde (DEAB), a specific ALDH inhibitor, as an ALDH^− control. Anti-human PE-CD24 and PE-Cy5-CD44 antibody (BioLegend) were used for CD44/CD24 identification and to separate ALDH^+/CD44^+/CD24^− and ALDH^−/CD44^+/CD24^+ cells when combined with ALDH staining. Analysis was performed using a FACStarPLUS (Becton Dickinion) flow cytometer. To assess the effect of STAT3 inhibitors on the subpopulation of ALDH^+ cells, un-separated breast cancer cells were treated with 5 µmol/L of LLL12 or 10 µmol/L Stattic for 24 hours prior to performing the ALDEFLUOR assay.
(§4) After sorting by flow cytometry, ALDH^+ and ALDH^+/CD44^+/CD24^− stem-like cells were cultured in serum-free stem cell medium in ultra-low attachment six-well plates (Corning) to maintain cancer stem cell characteristics. […]

[4] = 5 mg/kg IP daily; data not shown
[5] = tested on: ALDH+/CD44+/CD24− subpopulation of MDA-MB-231 and SUM159 breast cancer cells; experiment: Cell viability of ALDH+/CD44+/CD24− subpopulation; format: cell-based, human; settings: Figure 5D
Method: as §2

[6] = tested on: ALDH+ subpopulation from MDA-MB-231, SUM159, and SK-BR3 cells; experiment: MTT cell viability assay, ALDH+ subpopulation; format: cell-based, human; settings: 1 to 10 µmol/L 72 hours, ShRNA 48 hours
Method: as §2

Fyn = Fyn (Homo sapiens, UniProt P06241); experiment: Kinase profiler assay, Fyn; format: biochemical; settings: 10 concentrations, 100 µM highest; Table S3
Method: as §1

PI3K = experiment: Kinase profiler assay, PI3K; format: biochemical, human; settings: bound stated jointly for the other protein kinases; Table S3
Method: as §1

Met = Met (Homo sapiens, UniProt P08581); experiment: Kinase profiler assay, Met; format: biochemical; settings: bound stated jointly for the other protein kinases; Table S3
Method: as §1

[7] = tested on: STAT3 phosphorylation (Y705); experiment: Western blot of STAT3 phosphorylation in ALDH+ cells; format: cell-based, human; settings: LLL12 5 µmol/L or Stattic 10 µmol/L 24 hours, ShRNA 48 hours then puromycin
Method: as §3, §4

Bmx = Bmx (Homo sapiens, UniProt P51813); experiment: Kinase profiler assay, Bmx; format: biochemical; settings: 10 concentrations, 100 µM highest; Table S3
Method: as §1

[8] = tested on: STAT3 target genes Cyclin D1, survivin, Bcl-2 and Twist1; experiment: Expression of STAT3 target genes in un-separated breast cancer cells; format: cell-based, human; settings: un-separated MDA-MB-231, SK-BR-3, SUM159 cells; 10 µM, 24 hours
Method: LLL12 was synthesized in Dr. Pui-Kai Li’s laboratory (College of Pharmacy, The Ohio State University). Un-separated cells were treated with 10 µM of LLL12 or DMSO for 24 hours, and the phosphorylation of STAT3 (Y705), and ERK 1/2 (T202/Y204), and expression of STAT3 downstream genes, cleaved caspase-3, and PARP were detected by Western blots. (JPG) Click here for additional data file.

STAT3 = settings: cited from earlier work

Met, sequence (P08581 25-1390): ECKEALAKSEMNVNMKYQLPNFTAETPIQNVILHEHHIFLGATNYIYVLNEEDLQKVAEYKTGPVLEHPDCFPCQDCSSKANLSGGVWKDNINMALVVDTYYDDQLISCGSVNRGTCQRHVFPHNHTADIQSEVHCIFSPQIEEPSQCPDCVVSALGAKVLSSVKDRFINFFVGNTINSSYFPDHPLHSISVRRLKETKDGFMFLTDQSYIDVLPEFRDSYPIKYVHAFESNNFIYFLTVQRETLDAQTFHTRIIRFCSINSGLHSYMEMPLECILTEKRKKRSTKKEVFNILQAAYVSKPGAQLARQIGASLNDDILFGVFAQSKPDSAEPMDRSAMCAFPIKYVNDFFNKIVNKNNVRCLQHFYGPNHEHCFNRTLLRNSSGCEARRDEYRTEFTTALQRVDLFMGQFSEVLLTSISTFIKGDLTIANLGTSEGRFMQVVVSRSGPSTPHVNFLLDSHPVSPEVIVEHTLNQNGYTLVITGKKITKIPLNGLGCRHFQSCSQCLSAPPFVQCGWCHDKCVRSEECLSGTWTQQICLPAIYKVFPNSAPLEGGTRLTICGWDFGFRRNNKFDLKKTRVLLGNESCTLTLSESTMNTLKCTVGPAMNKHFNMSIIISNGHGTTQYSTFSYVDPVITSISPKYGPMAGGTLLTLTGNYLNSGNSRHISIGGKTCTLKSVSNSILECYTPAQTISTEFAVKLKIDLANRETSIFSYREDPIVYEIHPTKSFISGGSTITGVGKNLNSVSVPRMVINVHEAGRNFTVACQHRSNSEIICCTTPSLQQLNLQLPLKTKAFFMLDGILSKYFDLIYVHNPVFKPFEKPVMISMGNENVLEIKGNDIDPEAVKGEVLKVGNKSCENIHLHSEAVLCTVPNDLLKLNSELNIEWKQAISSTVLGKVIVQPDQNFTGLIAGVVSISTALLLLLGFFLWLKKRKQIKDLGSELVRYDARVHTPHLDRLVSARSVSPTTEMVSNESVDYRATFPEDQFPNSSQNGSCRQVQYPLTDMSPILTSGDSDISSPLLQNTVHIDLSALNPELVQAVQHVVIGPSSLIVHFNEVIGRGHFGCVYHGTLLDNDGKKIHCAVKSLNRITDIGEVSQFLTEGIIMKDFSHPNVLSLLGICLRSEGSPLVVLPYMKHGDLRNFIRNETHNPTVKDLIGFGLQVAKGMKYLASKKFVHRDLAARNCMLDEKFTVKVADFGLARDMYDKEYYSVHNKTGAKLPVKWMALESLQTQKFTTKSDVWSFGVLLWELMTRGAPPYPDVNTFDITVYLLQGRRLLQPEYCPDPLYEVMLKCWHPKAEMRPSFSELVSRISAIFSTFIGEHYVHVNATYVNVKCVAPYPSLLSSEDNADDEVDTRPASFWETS
Fyn, sequence (P06241 whole entry): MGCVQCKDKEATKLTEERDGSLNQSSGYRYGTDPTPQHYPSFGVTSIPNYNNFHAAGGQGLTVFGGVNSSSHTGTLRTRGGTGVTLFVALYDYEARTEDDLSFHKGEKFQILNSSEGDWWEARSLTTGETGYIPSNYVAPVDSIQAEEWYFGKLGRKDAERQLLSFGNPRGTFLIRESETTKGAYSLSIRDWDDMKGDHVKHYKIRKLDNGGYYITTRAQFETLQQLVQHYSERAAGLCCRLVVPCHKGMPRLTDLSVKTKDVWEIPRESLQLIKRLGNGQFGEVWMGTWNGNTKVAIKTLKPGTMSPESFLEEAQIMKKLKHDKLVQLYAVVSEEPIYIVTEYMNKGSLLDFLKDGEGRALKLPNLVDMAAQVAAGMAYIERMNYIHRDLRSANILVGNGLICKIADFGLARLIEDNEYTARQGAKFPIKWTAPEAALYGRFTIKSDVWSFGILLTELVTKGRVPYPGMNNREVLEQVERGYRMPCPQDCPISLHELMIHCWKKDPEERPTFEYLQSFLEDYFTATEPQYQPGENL
Bmx, sequence (P51813 whole entry): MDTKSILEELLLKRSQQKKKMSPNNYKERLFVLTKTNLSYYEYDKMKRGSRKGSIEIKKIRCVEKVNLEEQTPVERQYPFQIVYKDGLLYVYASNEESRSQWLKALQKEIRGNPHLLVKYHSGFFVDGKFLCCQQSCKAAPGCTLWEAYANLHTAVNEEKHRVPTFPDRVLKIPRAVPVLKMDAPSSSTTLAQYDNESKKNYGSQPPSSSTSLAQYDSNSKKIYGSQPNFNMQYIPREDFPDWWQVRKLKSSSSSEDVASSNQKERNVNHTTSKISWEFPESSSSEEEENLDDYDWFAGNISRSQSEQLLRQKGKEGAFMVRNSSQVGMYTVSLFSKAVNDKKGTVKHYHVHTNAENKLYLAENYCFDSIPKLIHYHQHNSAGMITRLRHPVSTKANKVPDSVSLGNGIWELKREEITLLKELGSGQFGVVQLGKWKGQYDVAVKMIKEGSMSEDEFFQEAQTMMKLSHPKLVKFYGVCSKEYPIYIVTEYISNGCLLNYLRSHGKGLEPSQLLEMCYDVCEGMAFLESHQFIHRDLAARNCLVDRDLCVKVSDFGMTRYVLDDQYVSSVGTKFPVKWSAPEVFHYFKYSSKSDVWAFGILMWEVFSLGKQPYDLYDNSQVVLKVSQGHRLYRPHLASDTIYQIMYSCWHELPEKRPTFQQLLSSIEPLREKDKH

## NS(=O)(=O)c1cccc2c1C(=O)c1cccc(O)c1C2=O [LLL12]
[1]
  STAT3 phosphorylation in tumor: significant suppresses
[1]; 15 days, P<0.05
  tumor mass: significant suppresses
  tumor volume: significant suppresses
STAT1
  STAT1 DNA binding activity: not
Syk
  IC50: > 100 µM
[2]
  mTOR and AKT phosphorylation: almost no effect
[3]
  tumorsphere forming capacity: inhibited
ALDH− cells
  effects against the ALDH− cells (cell viability): some inhibitory effects
STAT3 phosphorylation
  STAT3 phosphorylation: inhibited
[4]
  body weight compared to vehicle control: did not differ
[5]
  cell viability: inhibited
[6]
  cell viability of the ALDH+ subpopulation: inhibit
Fyn
  IC50: > 100 µM
PI3K
  IC50: ≥ 77.9 µM
Met
  IC50: ≥ 77.9 µM
[7]
  STAT3 phosphorylation in ALDH+ cells: inhibited
Bmx
  IC50: > 100 µM
[8]
  expression of STAT3 target genes Cyclin D1, survivin, Bcl-2 and Twist1: inhibited
STAT3
  STAT3 DNA binding activity: inhibited
